These results are taken from ChEMBL document CHEMBL4024726, “An integrated approach towards the discovery of novel non-nucleoside Leishmania major pteridine reductase 1 inhibitors” (Eur J Med Chem, 2017).

The target of assay [1] is T1, Pteridine reductase 1 (Leishmania major) (UniProt Q01782).
T1 sequence (whole entry): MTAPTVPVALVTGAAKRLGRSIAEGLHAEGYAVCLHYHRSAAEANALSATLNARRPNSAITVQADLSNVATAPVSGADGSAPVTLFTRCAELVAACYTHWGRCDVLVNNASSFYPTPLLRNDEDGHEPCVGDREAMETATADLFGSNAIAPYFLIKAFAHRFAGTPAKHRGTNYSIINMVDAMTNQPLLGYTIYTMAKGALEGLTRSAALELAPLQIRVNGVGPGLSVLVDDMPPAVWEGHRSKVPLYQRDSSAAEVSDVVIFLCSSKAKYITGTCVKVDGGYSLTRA
The assay can be described thus: Binding affinity to Leishmania major PTR1 BL21(DE3) assessed as change in melting temperature at 50 uM by SYPRO orange dye based RT-PCR analysis.

Assay [2] addresses T1, Pteridine reductase 1 (Leishmania major). As to the kind of experiment: Binding affinity to Leishmania major PTR1 BL21(DE3) assessed as change in melting temperature by SYPRO orange dye based RT-PCR analysis.
For assay [3] the target is unchanged. As to the kind of experiment: Noncompetitive inhibition of Leishmania major PTR1 at 1 mM in presence of saturating concentration of biopterin and varying levels of NADPH by spectrofluorimetric method.
For assay [4] the target is unchanged. The assay can be described thus: Noncompetitive inhibition of Leishmania major PTR1 at 1 mM in presence of varying levels of biopterin and constant NADPH level by spectrofluorimetric method.
Assay [5] shares this target. As to the kind of experiment: Competitive inhibition of Leishmania major PTR1 assessed as decrease in thermal shift stabilization at 1 mM in presence of varying levels of biopterin and constant NADPH level by spectrofluorimetric method.
Assay [6] has the same target. As to the kind of experiment: Competitive inhibition of Leishmania major PTR1 assessed as decrease in thermal shift stabilization at 1 mM in presence of saturating concentration of biopterin and varying levels of NADPH by spectrofluorimetric method.
For assay [7] the target is unchanged. The assay can be described thus: Inhibition of Leishmania major PTR1 at 50 uM using biopterin as substrate and NADPH as cofactor by spectrofluorimetric method relative to control.
A further assay deals with T2, Pteridine reductase 1 (Leishmania major, UniProt Q01782).
T2 sequence (Q01782 whole entry): T1 sequence (whole entry)
The assay can be described thus: Inhibition of Leishmania major PTR1 using biopterin as substrate and NADPH as cofactor by spectrofluorimetric method.

Structures are written as SMILES. The source made the active and inactive calls. The rule behind the calls is not given here. Some results are limits rather than exact numbers.

The term ΔTm denotes the shift of the melting midpoint relative to a reference. The inhibition is the relative decrease from the control value, in per cent. For the molecule `CC(N(C)Cc1nc2ccccc2c(=O)[nH]1)C(C)(C)C` (stereo not given), the shift in melting temperature (ΔTm) in assay [1] turned out to be 0.91 °C. Besides, in assay [2], the Activity entry was “Dose-dependent effect”. Also, the inhibition result in assay [3] and in assay [4] was “Active” in each case.
One may read the IC50 as the concentration that inhibits the measured activity by half. For `Cc1sc2ncnc(N/N=C/c3ccccc3)c2c1C`, the ΔTm in assay [1] amounted to 1.02 °C. Besides, the Activity result in assay [2] is “Dose-dependent effect”. Also, the inhibition entry in assay [5] and in assay [6] was “Active” each time. Besides, in assay [7], the inhibition is > 50%. On Pteridine reductase 1, this molecule had an IC50 of 32.3 µM.
